In patent publication US20130331331A1, “HEXAPEPTIDE WITH IMPROVED ACTIVITY IN THE REPAIR OF CELLULAR DNA OF DERMAL CELLS” (priority 2011, published 2013):
Non-standard residues stand in square brackets, D forms with d. Nle = CCCC[C@H](N)C(=O)O

Columns and labels:
Format in all cases: cell-based, human
melanocyte strain 102b = test: Tyrosinase activity dose-response, strain 102b; settings: subnanomolar concentrations
Procedure: Cell numbers as well as tyrosinase activity were then determined. Tyrosinase activity was calculated first at activity/10^6 cells, and then as % of control. […] The conditioned medium from each dish was collected to be assayed for tyrosinase activity, and the cell numbers were determined using a Coulter Counter. Triplicate dishes were included in each group, and duplicate samples from each dish were assayed for tyrosinase activity.

melanocytes strain 1505b = test: Tyrosinase activity dose-response, strain 1505b
Procedure: Dose-response experiments were carried out on another adult strain 102b which is shown in FIG. 6 and on the strain 1505b which is a melanocyte strain: melanocytes were treated with 0.001-10 nM CUV9990 or NDP-MSH, or 0.1-10 nM MSH for a total of 6 days, with the culture medium changed and fresh peptide added every other day. Cell numbers as well as tyrosinase activity were then determined. Tyrosinase activity was calculated first at activity/10^6 cells, and then as % of control. Twenty-four hours prior the end of the experiment, melanocytes received […] (0.7 μCi/ml medium). The conditioned medium from each dish was collected to be assayed for tyrosinase activity, and the cell numbers were determined using a Coulter Counter. Triplicate dishes were included in each group, and duplicate samples from each dish were assayed for tyrosinase activity. Each data point is the mean percent of control of 6 determinations/group±S.E.

melanocyte strain 1513c = test: Tyrosinase activity as a measure of stability / residual effect, strain 1513c
Procedure: (§1) To determine the residual effect of CUV9900, as compared to NDP-MSH and α-MSH, on tyrosinase activity, melanocytes were treated with either CUV9900 or NDP-MSH at the concentrations previously described for a total of 3 days. Tyrosinase activity was measured at the end of the 3 days of treatment, and 2 and 4 days after maintenance of the melanocytes in the complete absence of any treatment.
(§2) With continued reference to FIGS. 7, 8 and 9, to determine the stability of CUV9900 versus that of NDP-MSH and α-MSH, melanocytes were treated with 1 nM of each peptide, namely with CUV9900, NDP-MSH and α-MSH, for a total of 6 days, or with 1 nM peptides that were incubated for 5 hours at 37° C. prior to addition to the cultures, every other day, for a total of 6 days. Tyrosinase activity was measured at the end of treatment. In the experiments, cell number represents the mean percent of control of 3 determinations/group±SE, and tyrosinase activity data represent the mean percent of control of 6 determinations±S.E. It should be noted that for the sake of reproducibility the experiment of strain 1513c of FIG. 9 was performed once more 6 months later than the experiment of FIG. 7.
(§3) Melanocytes were treated for 3 days with the designated concentrations of CUV9900, NDP-MSH, or MSH, then maintained in absence of peptides for 4 days. Tyrosinase activity was determined 3 days after treatment.
Comparison of stability of CUV9900, NDP-MSH and MSH was compared in 1513c, as shown in FIG. 7; the strain was treated for 6 days with 1 nM CUV9900, NDP-MSH or MSH with fresh medium and peptide replenished every 2 days. Melanocytes were treated according to the same experiment protocol but each peptide was incubated for 5-7 hours at 37 degrees Celsius. […] The assessment of tyrosinase was statistically different from control, as determined by ANOVA (p=<0.05).
(§4) Tyrosinase activity as a measure of stability is shown in Tables 4 to 6 below, wherein Table 4 is based on data derived from FIG. 7, Table 5 is based on data derived from FIG. 9, and Table 6 is based on data derived from FIG. 8: […]

melanocyte strain 1505b = test: Tyrosinase activity as a measure of stability / residual effect, strain 1505b
Procedure: as §1, §2, §3, §4

melanocytic strain 1505b = test: UV-induced generation of hydrogen peroxide (luminol), strain 1505b; settings: 1 nM
Source text: (§5) With reference to FIGS. 10 and 11, melanocytes were irradiated with a bank of FS 20 lamps, with 75% emission in the UVB, and 25% emission in the UVA spectra, with peak emission at 313 nm wavelength. Any emission of UVC rays from the UV source (FS 20 lamps) was blocked by Kodacel filter. Prior to irradiation, the culture medium was replaced by PBS, which was removed after UV exposure, and fresh medium added.
(§6) Melanocytes were irradiated with 105 mJ/cm^2 UV, and treated immediately while in PBS with 0, 1 nM α-MSH or 1 nM CUV9900. Generation of hydrogen peroxide, representative of reactive oxygen species (ROS), was determined by measuring the luminescence of luminol at 0, 30, and 45 min after UV exposure. Triplicate dishes were included in each group, and duplicate samples from each dish were used for measurement of hydrogen peroxide at each time point. Each data point represents the mean of 6 determinations/group±S.E.
(§7) In the melanocytic strain 1505b of FIG. 10 and melanocytic strain 103c of FIG. 11, hydrogen peroxide generation was assessed at 0, 30 and 45 minutes after UV irradiation.

melanocytic strain 103c = test: UV-induced generation of hydrogen peroxide (luminol), strain 103c; settings: 1 nM, 105 mJ/cm^2 UV, 0, 30 and 45 minutes after irradiation
Source text: as §5, §6, §7

[1] = test system: melanocytic strains 1563c and 102b; test: Ultrastructural visualization of DOPA-stained HM (electron microscopy); settings: 0.1 nM or 1 nM CUV9900, 1 nM MSH
Procedure: With reference to FIGS. 14 and 15, two melanocytic strains, a lightly pigmented strain 1563c of FIG. 14 and strain 102b of FIG. 15 were plated in 4-well chamber slides and treated […] with either 0.1 nM or 1 nM CUV9900 or 1 nM MSH for a total of 6 days. Cells were processed for electron microscopy in the presence or absence of histochemical reaction with DOPA. Microtome sections were analyzed in a JEOL JEM-1230 transmission electron microscope and photomicrographs (15,000×) of the perinuclear area and dendrites were taken for each experimental group.

Ac-Nle-Glu His-D-Phe-Arg-Trp-NH2 (Ac-[Nle]EH[dF]RW-NH2; SMILES CCCC[C@H](NC(C)=O)C(=O)N[C@@H](CCC(=O)O)C(=O)N[C@@H](Cc1c[nH]cn1)C(=O)N[C@H](Cc1ccccc1)C(=O)N[C@@H](CCCNC(=N)N)C(=O)N[C@@H](Cc1c[nH]c2ccccc12)C(N)=O) [CUV9900, hexapeptide alpha-MSH analogue]
stimulation of tyrosinase activity, comparison (melanocyte strain 102b): greater stimulation of tyrosinase activity than NDP-MSH | effect on tyrosinase activity, comparison (melanocytes strain 1505b): equivalent to that of NDP-MSH | minimal effective dose, tyrosinase activity (melanocytes strain 1505b; 6 days treatment): 1 pM | tyrosinase activity, comparison in words (melanocyte strain 1513c; first experiment in strain 1513c (Table 4)): increased tyrosinase activity in comparison to Control and MSH, but marginally less than NDP-MSH | Tyrosinase activity, Mean (melanocyte strain 1513c; strain 1513c [1], 1 nM, mean of columns 1-3): 215.7 % of control | effect of incubating the peptide on its stimulation of tyrosinase activity (melanocyte strain 1513c; strain 1513c, 1 nM peptide incubated 5-7 hours at 37 degrees Celsius): no effect on its ability to stimulate tyrosinase activity | Tyrosinase activity, Mean [1 + 2] (melanocyte strain 1513c; strain 1513c, mean over experiments [1] and [2]): 284.2 % of control | superior tyrosinase activity in comparison to MSH (melanocyte strain 1505b): 18.7% | superior tyrosinase activity in comparison to NDP-MSH (melanocyte strain 1505b): 32.1% | residual effects on tyrosinase activity 4 days after peptide removal, CUV9900 vs MSH (melanocyte strain 1505b; 0.1 nM CUV9900 vs 1 nM MSH): equal | hydrogen peroxide generation, comparison (melanocytic strain 1505b; 45 minutes after irradiation): lower hydrogen peroxide generation in comparison with both NDP-MSH and MSH | UV-induced hydrogen peroxide generation (melanocytic strain 1505b; strain 1505b, 105 mJ/cm^2 UV, 0, 30 and 45 minutes after irradiation): significant reduction of UV-induced hydrogen peroxide generation | UV-induced hydrogen peroxide generation (melanocytic strain 103c): significant reduction of UV-induced hydrogen peroxide generation | melanosomes and DOPA reactivity by electron microscopy [1]: increased mature (stage IV) melanosomes in the perinuclear area and more so in dendrites
